Laboratory results published in patent US20180256611A1, “BISPHOSPHONATES FOR INCREASING THE TYPE 2 CHARACTER OF A MODIC CHANGE” (ANTECIP BIOVENTURES II LLC, priority 2017, published 2018).

Test system: patients with chronic low back pain (LBP) and Modic changes on MRI
Experiment: Double-blinded, randomized, placebo-controlled clinical trial of a single intravenous infusion of 5 mg zoledronic acid
Format: in vivo, human
Conditions: for Intensity of leg pain, mean (SD) original value / Intensity of LBP, mean (SD) original value / Intensity of LBP, mean (SD) change: 10-cm VAS; for Fingers-to-floor, between-group difference, adjusted (ANCOVA) / Fingers-to-floor, between-group difference, unadjusted / Intensity of LBP, between-group difference, adjusted analysis (ANCOVA, baseline value) / Intensity of LBP, between-group difference, unadjusted analysis / Intensity of leg pain, between-group difference, adjusted (ANCOVA) / Intensity of leg pain, between-group difference, unadjusted / Oswestry disability index, between-group difference, adjusted (ANCOVA) / Oswestry disability index, between-group difference, unadjusted / RAND-36 mental component, between-group difference (95% CI), adjusted (ANCOVA) / RAND-36 mental component, between-group difference (95% CI), unadjusted / RAND-36 physical component, between-group difference (95% CI), adjusted (ANCOVA) / RAND-36 physical component, between-group difference (95% CI), unadjusted / Sidebending to left, between-group difference, adjusted (ANCOVA) / Sidebending to left, between-group difference, unadjusted / Sidebending to right, between-group difference, adjusted (ANCOVA) / Sidebending to right, between-group difference, unadjusted / Total RAND-36, between-group difference (95% CI), adjusted (ANCOVA) / Total RAND-36, between-group difference (95% CI), unadjusted: ZA vs placebo
Description: A study was performed to evaluate the efficacy of a single intravenous infusion of 5 mg zoledronic acid in comparison with intravenous placebo infusion among patients with chronic low back pain (LBP) and Modic changes on MRI. This study was a double-blinded, randomized, placebo-controlled clinical trial in patients with low back pain (LBP).
Patients were excluded from the study if they had renal impairment with reduced creatinine clearance defined as an estimated glomerular filtration rate (eGFR) below 40 ml/min, hypocalcemia, known hypersensitivity to zoledronic acid or other bisphosphonates or ingredients of the infusion product, the presence of red flags, nerve root entrapment or willingness for early retirement. Premenopausal women of childbearing potential were also excluded. Blood samples were taken prior to the infusion to assess the serum concentration of calcium and creatinine. The clinical examination included medical history and clinical assessment of lumbar flexibility, tendon signs, and motor and sensory testing.
After confirmation of eligibility patients were randomized to receive a single intravenous infusion of 5 mg zoledronic acid (n=20) or 100 ml saline as placebo (n=20) over a 15-minute period. Information on use of the concomitant medication and hospital admissions were recorded. Blood samples were taken for the assessment of safety, inflammatory mediators and markers of bone turnover at baseline, at one month and at one year.
Clinical assessments were performed at 14 days before enrollment (screening visit), and at follow-up visits at one month and one year after the infusion. The primary outcome was the change in the intensity of LBP on VAS. Secondary outcomes included leg pain intensity, ODI, health-related quality of life assessed with RAND-36, patient-reported sick leaves and lumbar flexibility. These outcome measures were assessed at baseline and at each follow-up. Lumbar flexibility was evaluated using the fingers-to-floor and trunk side bending measures (in cm). The percentage of patients undergoing a 20% relative improvement, the proportion of patients reaching a VAS score of 40 mm or less using 100 mm scale in the primary outcome, and patient acceptable symptom state (PASS) were also assessed. Pain medication use was inquired about during the follow-up visits.

For `O=P(O)(O)C(O)(Cn1ccnc1)P(=O)(O)O` [ZA, zoledronic acid], the “Fingers-to-floor, mean (SD) original value” (1 mo.) was 17 (17) cm, the “Oswestry disability index, mean (SD) original value” (1 mo.) was 24 (10) % and the “RAND-36 mental component, mean (SD) original value” (1 mo.) was 50 (9). The “RAND-36 physical component, mean (SD) original value” (1 mo.) was 52 (9), the “Sidebending to left, mean (SD) original value” (1 mo.) was 16.1 (5.3) cm and the “Sidebending to right, mean (SD) original value” (1 mo.) was 15.7 (5.9) cm. The “Total RAND-36, mean (SD) original value” (1 mo.) was 51 (8), the “Intensity of leg pain, mean (SD) original value” (1 mo.) was 2.0 (2.3) and the “Intensity of LBP, mean (SD) original value” (1 mo. after 5 mg IV) was 4.3 (2.3). For the same compound, the “Intensity of leg pain, mean (SD) original value” (12 mos.) was 2.1 (2.8), the “Intensity of LBP, mean (SD) original value” (12 mos. after 5 mg IV) was 3.8 (2.5) and the “Intensity of leg pain, mean (SD) original value” (baseline) was 3.0 (3.1). For the same compound, the “Intensity of LBP, mean (SD) change” value (baseline to 1 mo.) was −2.2 (2.7), the “Intensity of LBP, mean (SD) change” value (baseline to 12 mos.) was −2.8 (2.9) and the “Intensity of LBP, mean (SD) original value” (baseline, n=20) was 6.6 (1.4). For the same compound, the “Fingers-to-floor, mean (SD) original value” (12 mos.) was 16 (16) cm, the “Oswestry disability index, mean (SD) original value” (12 mos.) was 25 (13) % and the “RAND-36 mental component, mean (SD) original value” (12 mos.) was 51 (9). For the same compound, the “RAND-36 physical component, mean (SD) original value” (12 mos.) was 52 (8), the “Sidebending to left, mean (SD) original value” (12 mos.) was 16.2 (6.7) cm and the “Sidebending to right, mean (SD) original value” (12 mos.) was 15.7 (5.6) cm. For the same compound, the “Total RAND-36, mean (SD) original value” (12 mos.) was 51 (8), the “Fingers-to-floor, between-group difference, adjusted (ANCOVA)” value (1 mo.) was 3.6 cm and the “Fingers-to-floor, between-group difference, unadjusted” value (1 mo.) was 5.0 cm. For the same compound, the “Intensity of LBP, between-group difference, adjusted analysis (ANCOVA, baseline value)” value (1 mo.) was 1.4, the “Intensity of LBP, between-group difference, unadjusted analysis” value (1 mo.) was 1.3 and the “Intensity of leg pain, between-group difference, adjusted (ANCOVA)” value (1 mo.) was 0.8. For the same compound, the “Intensity of leg pain, between-group difference, unadjusted” value (1 mo.) was 0.8, the “Oswestry disability index, between-group difference, adjusted (ANCOVA)” value (1 mo.) was 6.0% and the “Oswestry disability index, between-group difference, unadjusted” value (1 mo.) was 4.3%. For the same compound, the “RAND-36 mental component, between-group difference (95% CI), adjusted (ANCOVA)” value (1 mo.) was 1.6 (−2 to 5), the “RAND-36 mental component, between-group difference (95% CI), unadjusted” value (1 mo.) was 2.0 (−2 to 6) and the “RAND-36 physical component, between-group difference (95% CI), adjusted (ANCOVA)” value (1 mo.) was 1.3 (−3 to 6). The “RAND-36 physical component, between-group difference (95% CI), unadjusted” value (1 mo.) was 0.3 (−4 to 5), the “Sidebending to left, between-group difference, adjusted (ANCOVA)” value (1 mo.) was −1.7 cm and the “Sidebending to left, between-group difference, unadjusted” value (1 mo.) was −1.5 cm. The “Sidebending to right, between-group difference, adjusted (ANCOVA)” value (1 mo.) was −2.0 cm, the “Sidebending to right, between-group difference, unadjusted” value (1 mo.) was −2.0 cm and the “Total RAND-36, between-group difference (95% CI), adjusted (ANCOVA)” value (1 mo.) was 1.3 (−3 to 5). The “Total RAND-36, between-group difference (95% CI), unadjusted” value (1 mo.) was 1.2 (−3 to 5), the “Fingers-to-floor, between-group difference, adjusted (ANCOVA)” value (12 mos.) was 5.3 cm and the “Fingers-to-floor, between-group difference, unadjusted” value (12 mos.) was 7.1 cm. The “Intensity of LBP, between-group difference, adjusted analysis (ANCOVA, baseline value)” value (12 mos.) was 0.7, the “Intensity of LBP, between-group difference, unadjusted analysis” value (12 mos.) was 0.6 and the “Intensity of leg pain, between-group difference, adjusted (ANCOVA)” value (12 mos.) was 0.5. The “Intensity of leg pain, between-group difference, unadjusted” value (12 mos.) was 0.6, the “Oswestry disability index, between-group difference, adjusted (ANCOVA)” value (12 mos.) was 5.1% and the “Oswestry disability index, between-group difference, unadjusted” value (12 mos.) was 3.1%. For the same compound, the “RAND-36 mental component, between-group difference (95% CI), adjusted (ANCOVA)” value (12 mos.) was 2.7 (−2 to 7), the “RAND-36 mental component, between-group difference (95% CI), unadjusted” value (12 mos.) was 3.5 (−2 to 9) and the “RAND-36 physical component, between-group difference (95% CI), adjusted (ANCOVA)” value (12 mos.) was 2.1 (−3 to 7). For the same compound, the “RAND-36 physical component, between-group difference (95% CI), unadjusted” value (12 mos.) was 0.7 (−5 to 6), the “Sidebending to left, between-group difference, adjusted (ANCOVA)” value (12 mos.) was −1.0 cm and the “Sidebending to left, between-group difference, unadjusted” value (12 mos.) was −0.7 cm. The “Sidebending to right, between-group difference, adjusted (ANCOVA)” value (12 mos.) was −1.7 cm, the “Sidebending to right, between-group difference, unadjusted” value (12 mos.) was −1.6 cm and the “Total RAND-36, between-group difference (95% CI), adjusted (ANCOVA)” value (12 mos.) was 2.2 (−2 to 7). For the same compound, the “Total RAND-36, between-group difference (95% CI), unadjusted” value (12 mos.) was 2.1 (−3 to 7), the “Patients using NSAIDs (self-reported)” value (at one year, placebo 60%) was 20% and the “Fingers-to-floor, mean (SD) original value” (baseline) was 23 (19) cm. For the same compound, the “Oswestry disability index, mean (SD) original value” (baseline) was 30 (11) %, the “RAND-36 mental component, mean (SD) original value” (baseline) was 49 (9) and the “RAND-36 physical component, mean (SD) original value” (baseline) was 52 (8). The “Sidebending to left, mean (SD) original value” (baseline) was 15.0 (5.4) cm, the “Sidebending to right, mean (SD) original value” (baseline) was 14.1 (4.9) cm and the “Total RAND-36, mean (SD) original value” (baseline) was 50 (8). The “Fingers-to-floor, mean (SD) change” value (baseline to 1 mo.) was −5.1 (20) cm, the “Intensity of leg pain, mean (SD) change” value (baseline to 1 mo.) was −0.6 (2.4) and the “Oswestry disability index, mean (SD) change” value (baseline to 1 mo.) was −5.9 (11) %. The “RAND-36 mental component, mean change” value (baseline to 1 mo.) was 1.0, the “RAND-36 physical component, mean change” value (baseline to 1 mo.) was 0.1 and the “Sidebending to left, mean (SD) change” value (baseline to 1 mo.) was 1.1 (3.0) cm. For the same compound, the “Sidebending to right, mean (SD) change” value (baseline to 1 mo.) was 1.5 (4.7) cm, the “Total RAND-36, mean change” value (baseline to 1 mo.) was 0.6 and the “Fingers-to-floor, mean (SD) change” value (baseline to 12 mos.) was −6.3 (23) cm. For the same compound, the “Intensity of leg pain, mean (SD) change” value (baseline to 12 mos.) was −0.9 (3.4), the “Oswestry disability index, mean (SD) change” value (baseline to 12 mos.) was −5.0 (15) % and the “RAND-36 mental component, mean change” value (baseline to 12 mos.) was 1.8. The “RAND-36 physical component, mean change” value (baseline to 12 mos.) was 0.3, the “Sidebending to left, mean (SD) change” value (baseline to 12 mos.) was 1.2 (5.3) cm and the “Sidebending to right, mean (SD) change” value (baseline to 12 mos.) was 1.6 (4.8) cm. For the same compound, the “Total RAND-36, mean change” value (baseline to 12 mos.) was 1.0, the “Proportion of patients reaching patient acceptable symptom state (PASS)” value (one month, placebo 20% (p=0.096)) was 50% and the “Proportion of patients with at least 20% improvement in intensity of LBP” value (one month, placebo 25% (p=0.105)) was 55%. The “Pain reduction, VAS change from baseline” value (patients with Baseline VAS <6) was −0.1 cm, the “Pain reduction, VAS change from baseline” value (patients with Baseline VAS ≥6 and <7) was −2.3 cm and the “Pain reduction, VAS change from baseline” value (patients with Baseline VAS ≥7) was −3.4 cm. The “Mean reduction in pain from baseline” value (patients with baseline pain intensity <6) was 0.1 and the “Mean reduction in pain from baseline” value (patients with baseline pain intensity ≥7) was 3.4.
